The values below come from patent EP0590919A1, “Therapeutic agents for parkinson's disease” (KYOWA HAKKO KOGYO CO., LTD., priority 1992, dated 1994).

T1 sequence (P30543 whole entry): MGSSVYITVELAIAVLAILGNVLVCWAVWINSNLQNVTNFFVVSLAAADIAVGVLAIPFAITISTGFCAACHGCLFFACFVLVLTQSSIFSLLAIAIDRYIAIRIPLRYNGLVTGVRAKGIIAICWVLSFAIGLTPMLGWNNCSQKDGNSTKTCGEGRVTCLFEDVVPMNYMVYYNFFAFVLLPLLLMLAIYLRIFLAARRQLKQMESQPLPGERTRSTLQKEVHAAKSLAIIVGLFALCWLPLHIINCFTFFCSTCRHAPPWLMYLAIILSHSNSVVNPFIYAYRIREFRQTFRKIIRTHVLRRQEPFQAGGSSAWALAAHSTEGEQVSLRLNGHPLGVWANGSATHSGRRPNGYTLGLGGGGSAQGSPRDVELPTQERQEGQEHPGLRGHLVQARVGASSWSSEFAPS

One series has as its target T1, A₂ receptor (Rattus norvegicus, UniProt P30543).
T1 construct: from tissue; host or cells: rat corpus striatum membrane preparation
The series is described as follows: Adenosine A₂ receptor binding test (³H-CGS 21680 binding). The settings on record: 10^-6M; [^3H]CGS 21680 was used, rat corpus striatum; read-out: A2 Receptor Inhibition (%). Here is the method:
(§1) The similar procedure as in the above-described adenosine A₁ receptor binding test was repeated using rat corpus striatum to obtain the final precipitate of the tissue thereof. The precipitate was suspended in 50 mM Tris HCl buffer containing 10 mM magnesium chloride and 0.02 unit/mg tissue of adenosine deaminase (manufactured by Sigma Co.) to give a tissue concentration of 5 mg (wet weight)/ml.
The similar procedure as above was repeated to determine the radioactivity bound to the A₂ receptors using 50 µl of CGS 21680 labeled with tritium [³H-2-[p-(2-carboxyethyl)-phenethylamino]-5'-(N-ethylcarboxamide)adenosine: 40 Ci/mmol, manufactured by New England Nuclear Co. (J. Pharmacol. Exp. Ther., 251, 888 (1989)] (final concentration: 4.0 nM) in place of 50 µl of the mixture of N-ethylcarboxamidoadenosine labeled with tritium (³H-NECA: 26 Ci/mmol, manufactured by Amersham Co.) (final concentration: 3.8 nM) and cyclopentyladenosine (CPA, manufactured by Sigma Co.) (final concentration: 50 nM).
The inhibition rate of the test compound against the binding of A₂ receptors (³H-CGS 21680 binding) was calculated by the following equation: [formula] [Notes] • 1. "B" means the amount of radioactivity of ³H-CGS 21680 bound in the presence of a test compound at a concentration shown in Table 4. • 2. "T" means the amount of radioactivity of ³H-CGS 21680 bound in the absence of a test compound. • 3. "N" means the amount of radioactivity of ³H-CGS 21680 bound in the presence of 100 µM CPA.
`CCn1c(=O)c2[nH]c(/C=C/c3ccc(F)cc3)nc2n(CC)c1=O` [Compound 83, (E)-1,3-Diethyl-8-(4-fluorostyryl)xanthine]: the inhibition at 1 µM turned out to be 70%.
Consider `CCn1c(=O)c2[nH]c(/C=C/c3cc(F)cc(F)c3)nc2n(CC)c1=O` [Compound 87, (E)-8-(3,5-Difluorostyryl)-1,3-diethylxanthine], for which the inhibition at 1 µM is 66%.
Still for that read-out and setting: as for `CCn1c(=O)c2[nH]c(/C=C/c3cccc([N+](=O)[O-])c3)nc2n(CC)c1=O` [Compound 89, (E)-1,3-Diethyl-8-(3-nitrostyryl)xanthine], the figure is 78%; as for `CCn1c(=O)c2[nH]c(/C=C/c3cccc(Br)c3)nc2n(CC)c1=O` [Compound 91, (E)-8-(3-Bromostyryl)-1,3-diethylxanthine], 51%; as for `CCn1c(=O)c2[nH]c(/C=C/c3cccc(C(F)(F)F)c3)nc2n(CC)c1=O` [Compound 93, (E)-1,3-Diethyl-8-(3-trifluoromethylstyryl)xanthine], 85%.
On the same count and under the same terms, the result for `CCn1c(=O)c2c(nc(/C=C/c3cccc(C(F)(F)F)c3)n2C)n(CC)c1=O` [Compound 94, (E)-1,3-Diethyl-7-methyl-8-(3-trifluoromethylstyryl)xanthine] reads 98%; that for `CCn1c(=O)c2[nH]c(/C=C/c3cc4c(cc3Br)OCO4)nc2n(CC)c1=O` [Compound 95, (E)-8-(2-Bromo-4,5-methylenedioxystyryl)-1,3-diethylxanthine], 89%.

Still in this series, the particulars now being: 10^-7M; [^3H]CGS 21680 was used, rat corpus striatum; read-out: A2 Receptor Inhibition (%).
As for `CCn1c(=O)c2[nH]c(/C=C/c3ccc(F)cc3)nc2n(CC)c1=O` [Compound 83, (E)-1,3-Diethyl-8-(4-fluorostyryl)xanthine], the inhibition at 0.1 µM turned out to be 75%.
As to `CCn1c(=O)c2[nH]c(/C=C/c3cc(F)cc(F)c3)nc2n(CC)c1=O` [Compound 87, (E)-8-(3,5-Difluorostyryl)-1,3-diethylxanthine], the inhibition at 0.1 µM came out at 59%.
`CCn1c(=O)c2[nH]c(/C=C/c3cccc([N+](=O)[O-])c3)nc2n(CC)c1=O` [Compound 89, (E)-1,3-Diethyl-8-(3-nitrostyryl)xanthine]: the inhibition at 0.1 µM worked out at 59%.
On the same count and under the same terms, as for `CCn1c(=O)c2[nH]c(/C=C/c3cccc(Br)c3)nc2n(CC)c1=O` [Compound 91, (E)-8-(3-Bromostyryl)-1,3-diethylxanthine], the figure is 9%.
With `CCn1c(=O)c2[nH]c(/C=C/c3cccc(C(F)(F)F)c3)nc2n(CC)c1=O` [Compound 93, (E)-1,3-Diethyl-8-(3-trifluoromethylstyryl)xanthine], the inhibition at 0.1 µM came to 53%.
As for `CCn1c(=O)c2c(nc(/C=C/c3cccc(C(F)(F)F)c3)n2C)n(CC)c1=O` [Compound 94, (E)-1,3-Diethyl-7-methyl-8-(3-trifluoromethylstyryl)xanthine], the inhibition at 0.1 µM was found to be 71%.
Consider `CCn1c(=O)c2[nH]c(/C=C/c3cc4c(cc3Br)OCO4)nc2n(CC)c1=O` [Compound 95, (E)-8-(2-Bromo-4,5-methylenedioxystyryl)-1,3-diethylxanthine], for which the inhibition at 0.1 µM worked out at 75%.

A further series has as its target T1, A₂ receptor. The series is described as follows: Adenosine A₂ receptor binding test (³H-NECA binding). The settings on record: 10⁻⁶M; ³H-NECA binding, rat corpus striatum; read-out: Inhibition (%) A₂ Receptor. On the procedure:
as §1
The mixture solution was allowed to stand at 25°C for 120 minutes and then treated in the same manner as in the adenosine A₁ receptor binding test to determine the radioactivity bound to the A₂ receptors.
The inhibition rate of the test compound against the binding of A₂ receptor (³H-NECA binding) was calculated by the following equation: [formula] [Notes] • 1.
`CCn1c(=O)c2[nH]c(/C=C/c3cc(OC)cc(OC)c3)nc2n(CC)c1=O` [Compound 67, (E)-8-(3,5-Dimethoxystyryl)-1,3-diethylxanthine]: the inhibition at 1 µM is 73%.
With `CCn1c(=O)c2c(nc(/C=C/c3cc(OC)cc(OC)c3)n2C)n(CC)c1=O` [Compound 68, (E)-8-(3,5-Dimethoxystyryl)-1,3-diethyl-7-methylxanthine], the inhibition at 1 µM came out at 88%.
The same measure, in the same setting: the result for `CCn1c(=O)c2c(nc(/C=C/c3cccc(Cl)c3)n2C)n(CC)c1=O` [Compound 70, (E)-8-(3-Chlorostyryl)-1,3-diethyl-7-methylxanthine] reads 84%; that for `CCn1c(=O)c2c(nc(/C(F)=C\c3ccccc3)n2C)n(CC)c1=O` [Compound 76, (E)-1,3-Diethyl-8-(α-fluorostyryl)-7-methylxanthine], 69%.

The same series, now with this note: 10⁻⁷M; ³H-NECA binding, rat corpus striatum; read-out: Inhibition (%) A₂ Receptor.
For the molecule `CCn1c(=O)c2[nH]c(/C=C/c3cc(OC)cc(OC)c3)nc2n(CC)c1=O` [Compound 67, (E)-8-(3,5-Dimethoxystyryl)-1,3-diethylxanthine], the inhibition at 0.1 µM came to 73%.
For `CCn1c(=O)c2c(nc(/C=C/c3cc(OC)cc(OC)c3)n2C)n(CC)c1=O` [Compound 68, (E)-8-(3,5-Dimethoxystyryl)-1,3-diethyl-7-methylxanthine], the inhibition at 0.1 µM came out at 81%.
In the case of `CCn1c(=O)c2c(nc(/C=C/c3cccc(Cl)c3)n2C)n(CC)c1=O` [Compound 70, (E)-8-(3-Chlorostyryl)-1,3-diethyl-7-methylxanthine], the inhibition at 0.1 µM came out at 76%.
With `CCn1c(=O)c2c(nc(/C(F)=C\c3ccccc3)n2C)n(CC)c1=O` [Compound 76, (E)-1,3-Diethyl-8-(α-fluorostyryl)-7-methylxanthine], the inhibition at 0.1 µM turned out to be 30%.

The next series deals with dd-strain male mice. The series is described as follows: Acute toxicity test (minimum lethal dose, oral). The format is in vivo. The following applies: oral administration, three mice per group, mortality seven days after administration. Here is the method: Test compounds were orally administered to groups of dd-strain male mice weighing 20 ± 1 g, each group consisting of three mice. Seven days after the administration, minimum lethal dose (MLD) of each compound was determined by observing the mortality.
The molecule `CCn1c(=O)c2[nH]c(/C=C/c3cc(OC)cc(OC)c3)nc2n(CC)c1=O` [Compound 67, (E)-8-(3,5-Dimethoxystyryl)-1,3-diethylxanthine] returned an MLD above 100 mg/kg.
`CCn1c(=O)c2c(nc(/C=C/c3cc(OC)cc(OC)c3)n2C)n(CC)c1=O` [Compound 68, (E)-8-(3,5-Dimethoxystyryl)-1,3-diethyl-7-methylxanthine] yielded an MLD above 300 mg/kg.
Molecule `CCn1c(=O)c2c(nc(/C=C/c3cccc(Cl)c3)n2C)n(CC)c1=O` [Compound 70, (E)-8-(3-Chlorostyryl)-1,3-diethyl-7-methylxanthine] registered an MLD above 300 mg/kg.
In the case of `CCn1c(=O)c2c(nc(/C(F)=C\c3ccccc3)n2C)n(CC)c1=O` [Compound 76, (E)-1,3-Diethyl-8-(α-fluorostyryl)-7-methylxanthine], the MLD was above 100 mg/kg.
Regarding `CCn1c(=O)c2[nH]c(/C=C/c3ccc(F)cc3)nc2n(CC)c1=O` [Compound 83, (E)-1,3-Diethyl-8-(4-fluorostyryl)xanthine], the MLD is above 100 mg/kg.
Consider `CCn1c(=O)c2[nH]c(/C=C/c3cc(F)cc(F)c3)nc2n(CC)c1=O` [Compound 87, (E)-8-(3,5-Difluorostyryl)-1,3-diethylxanthine], for which the MLD is above 100 mg/kg.
`CCn1c(=O)c2[nH]c(/C=C/c3cccc([N+](=O)[O-])c3)nc2n(CC)c1=O` [Compound 89, (E)-1,3-Diethyl-8-(3-nitrostyryl)xanthine] came in with an MLD above 100 mg/kg.
The molecule `CCn1c(=O)c2[nH]c(/C=C/c3cccc(Br)c3)nc2n(CC)c1=O` [Compound 91, (E)-8-(3-Bromostyryl)-1,3-diethylxanthine] yielded an MLD above 100 mg/kg.
As to `CCn1c(=O)c2[nH]c(/C=C/c3cccc(C(F)(F)F)c3)nc2n(CC)c1=O` [Compound 93, (E)-1,3-Diethyl-8-(3-trifluoromethylstyryl)xanthine], the MLD was above 100 mg/kg.
Take `CCn1c(=O)c2c(nc(/C=C/c3cccc(C(F)(F)F)c3)n2C)n(CC)c1=O` [Compound 94, (E)-1,3-Diethyl-7-methyl-8-(3-trifluoromethylstyryl)xanthine]: the MLD is on record as above 100 mg/kg.
For `CCn1c(=O)c2[nH]c(/C=C/c3cc4c(cc3Br)OCO4)nc2n(CC)c1=O` [Compound 95, (E)-8-(2-Bromo-4,5-methylenedioxystyryl)-1,3-diethylxanthine], the MLD is above 100 mg/kg.

A further series has as its system Haloperidol-Induced Catalepsy. Description: Effect on haloperidol-induced catalepsy. The settings on record: of five mice, catalepsy score not more than 4 points; 10 mg/kg orally. The format is in vivo, mice. Here is the method:
Haloperidol (Janssen Pharmaceutica) suspended in 0.3% CMC was intraperitoneally administered to each mouse at a dose of 1.0 mg/kg. Test compounds were suspended in 0.3% CMC or in injectable distilled water (Otsuka Pharmaceutical Co., Ltd.) containing Tween 80. L-DOPA (Kyowa Hakko Kogyo Co., Ltd.) and benserazide hydrochloride (Kyowa Hakko Kogyo Co., Ltd.) were suspended in 0.3% CMC. One hour after the haloperidol administration, the test compound suspensions and the control suspension [injectable distilled water (Otsuka Pharmaceutical Co., Ltd.) containing Tween 80] containing no test compound were orally administered to separate groups of the mice (0.1 ml per 10 g of body weight). One hour after the administration of the test compound, the forelimbs of each mouse and subsequently the hindlimbs of the same mouse were placed on a 4.5 cm-high, 1.0 cm-wide bar and catalepsy was estimated. […] The catalepsy score and the standard of judgment are shown below. […] The number of the animals showing remission against catalepsy is the number of the mice for which the catalepsy score was not more than 4 points. […] The ED₅₀ values were calculated by Probit analysis.
Consider `CCn1c(=O)c2[nH]c(/C=C/c3cc(OC)cc(OC)c3)nc2n(CC)c1=O` [Compound 67, (E)-8-(3,5-Dimethoxystyryl)-1,3-diethylxanthine], for which the “Number of the Animals Showing Remission” value is on record as 5.
For the molecule `CCn1c(=O)c2c(nc(/C=C/c3cc(OC)cc(OC)c3)n2C)n(CC)c1=O` [Compound 68, (E)-8-(3,5-Dimethoxystyryl)-1,3-diethyl-7-methylxanthine], the “Number of the Animals Showing Remission” value came to 5.
Regarding `CCn1c(=O)c2c(nc(/C=C/c3cccc(Cl)c3)n2C)n(CC)c1=O` [Compound 70, (E)-8-(3-Chlorostyryl)-1,3-diethyl-7-methylxanthine], the “Number of the Animals Showing Remission” value came to 4.
As for `CCn1c(=O)c2c(nc(/C(F)=C\c3ccccc3)n2C)n(CC)c1=O` [Compound 76, (E)-1,3-Diethyl-8-(α-fluorostyryl)-7-methylxanthine], the “Number of the Animals Showing Remission” value was 4.

The series is the same for the next values; noted with them: rate of decrease in total score based on control group; 10 mg/kg orally.
For `CCn1c(=O)c2[nH]c(/C=C/c3cc(OC)cc(OC)c3)nc2n(CC)c1=O` [Compound 67, (E)-8-(3,5-Dimethoxystyryl)-1,3-diethylxanthine], the “Remission Rate (%)” value came out at 64%.
Consider `CCn1c(=O)c2c(nc(/C=C/c3cc(OC)cc(OC)c3)n2C)n(CC)c1=O` [Compound 68, (E)-8-(3,5-Dimethoxystyryl)-1,3-diethyl-7-methylxanthine], for which the “Remission Rate (%)” value is recorded as 80%.
The same measure, in the same setting: as for `CCn1c(=O)c2c(nc(/C=C/c3cccc(Cl)c3)n2C)n(CC)c1=O` [Compound 70, (E)-8-(3-Chlorostyryl)-1,3-diethyl-7-methylxanthine], the figure is 44%; as for `CCn1c(=O)c2c(nc(/C(F)=C\c3ccccc3)n2C)n(CC)c1=O` [Compound 76, (E)-1,3-Diethyl-8-(α-fluorostyryl)-7-methylxanthine], 40%.

The same series, now with this note: total catalepsy score of five mice (25 points at the full); 10 mg/kg orally, haloperidol 1.0 mg/kg i.p.
Take `CCn1c(=O)c2[nH]c(/C=C/c3cc(OC)cc(OC)c3)nc2n(CC)c1=O` [Compound 67, (E)-8-(3,5-Dimethoxystyryl)-1,3-diethylxanthine]: the “Total Score” value came to 9.
Consider `CCn1c(=O)c2c(nc(/C=C/c3cc(OC)cc(OC)c3)n2C)n(CC)c1=O` [Compound 68, (E)-8-(3,5-Dimethoxystyryl)-1,3-diethyl-7-methylxanthine], for which the “Total Score” value amounted to 5.
Same read-out and setting: the result for `CCn1c(=O)c2c(nc(/C=C/c3cccc(Cl)c3)n2C)n(CC)c1=O` [Compound 70, (E)-8-(3-Chlorostyryl)-1,3-diethyl-7-methylxanthine] reads 14; that for `CCn1c(=O)c2c(nc(/C(F)=C\c3ccccc3)n2C)n(CC)c1=O` [Compound 76, (E)-1,3-Diethyl-8-(α-fluorostyryl)-7-methylxanthine], 15.
